Results taken from patent US7927821B2, “Methods of screening for compounds which bind G protein-coupled receptors” (Takeda Pharmaceutical Company Limited, priority 2004, dated 2011).

Biological target: TGR25-GFP fusion protein (UniProt P42212+Q86Y34, F64L/I167T/S65C)
Assay: Internalization of the TGR25-GFP fusion protein expressed on CHO cells (confocal microscope)
Format: cell-based, human
Details: 100 μM AM251, 45 minutes, 37° C.

Cc1c(C(=O)NN2CCCCC2)nn(-c2ccc(Cl)cc2Cl)c1-c1ccc(I)cc1 [AM251, 1-(2,4-dichlorophenyl)-5-(4-iodophenyl)-4-methyl-N-piperidin-1-yl-1H-pyrazole-3-carboxamide]
localization of the TGR25-GFP fusion protein (internalization): moved in part to the cytoplasm
